“And” between values parts separate entries of the source, which are not always exact repeats. Equal values may be shown once.
Legend:
Test in all cases: Kinase inhibition screen, cell-free 33P ATP assay at 10 μM
Type in all cases: biochemical
[1] = target: 140 purified human kinases (Homo sapiens, UniProt Q9P286); conditions: for % Activity Run 1 / % Activity Run 2: 10 µM
Method in brief: (§1)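 Radiometric ^33P ATP cell-free format with purified enzymes; both complexes run at 10 μM in duplicate, results plotted on a kinome map via HGNC symbols.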

[2] = target: T1, 140 purified human kinases (Homo sapiens, UniProt Q05513); conditions: PKCz; for % Activity inhibition Mean / % Activity inhibition Run 1 / % Activity inhibition Run 2 / % Activity remaining Run 1 / % Activity remaining Run 2: 10 µM
T1 sequence (Q05513 1-592): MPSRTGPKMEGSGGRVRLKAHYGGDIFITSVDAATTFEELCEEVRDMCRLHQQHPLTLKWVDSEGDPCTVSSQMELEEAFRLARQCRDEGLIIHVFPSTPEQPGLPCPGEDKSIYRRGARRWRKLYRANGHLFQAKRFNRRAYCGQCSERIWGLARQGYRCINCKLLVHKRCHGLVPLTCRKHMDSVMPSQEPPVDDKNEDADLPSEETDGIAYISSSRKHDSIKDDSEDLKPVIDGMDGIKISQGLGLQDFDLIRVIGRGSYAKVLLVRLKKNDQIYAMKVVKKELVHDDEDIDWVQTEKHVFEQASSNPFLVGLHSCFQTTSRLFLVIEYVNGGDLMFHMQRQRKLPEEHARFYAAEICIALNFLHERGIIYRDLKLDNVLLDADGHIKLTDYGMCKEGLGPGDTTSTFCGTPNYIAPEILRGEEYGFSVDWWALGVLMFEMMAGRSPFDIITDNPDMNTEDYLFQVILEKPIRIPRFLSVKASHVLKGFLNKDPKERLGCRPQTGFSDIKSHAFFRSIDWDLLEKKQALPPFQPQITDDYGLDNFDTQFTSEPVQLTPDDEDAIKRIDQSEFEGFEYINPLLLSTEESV
Method in brief: as §1

[3] = target: 140 purified human kinases (Homo sapiens, UniProt Q14680); conditions: MELK
Sequence of 140 purified human kinases (Homo sapiens, UniProt Q14680) (Q14680 whole entry): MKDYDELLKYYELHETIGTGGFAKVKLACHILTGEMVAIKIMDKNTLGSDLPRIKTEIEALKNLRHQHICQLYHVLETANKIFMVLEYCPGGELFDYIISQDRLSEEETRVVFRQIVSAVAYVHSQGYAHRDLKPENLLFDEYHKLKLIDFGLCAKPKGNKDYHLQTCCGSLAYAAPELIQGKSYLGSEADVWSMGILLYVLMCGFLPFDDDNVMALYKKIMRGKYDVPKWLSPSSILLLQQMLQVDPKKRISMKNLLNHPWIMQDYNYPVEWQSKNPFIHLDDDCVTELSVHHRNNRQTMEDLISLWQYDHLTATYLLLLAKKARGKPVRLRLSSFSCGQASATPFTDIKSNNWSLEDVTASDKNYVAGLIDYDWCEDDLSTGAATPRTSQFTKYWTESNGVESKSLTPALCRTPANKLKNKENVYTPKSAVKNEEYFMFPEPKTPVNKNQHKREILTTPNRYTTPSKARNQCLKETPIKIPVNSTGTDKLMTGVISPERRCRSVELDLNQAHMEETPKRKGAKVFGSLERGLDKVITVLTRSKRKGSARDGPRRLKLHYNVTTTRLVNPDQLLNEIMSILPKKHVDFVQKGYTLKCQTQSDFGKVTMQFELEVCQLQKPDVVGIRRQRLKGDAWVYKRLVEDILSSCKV
Method in brief: as §1

[4] = target: T2, 140 purified human kinases (Homo sapiens, UniProt P51955); conditions: NEK2a
T2 sequence (P51955 1-445): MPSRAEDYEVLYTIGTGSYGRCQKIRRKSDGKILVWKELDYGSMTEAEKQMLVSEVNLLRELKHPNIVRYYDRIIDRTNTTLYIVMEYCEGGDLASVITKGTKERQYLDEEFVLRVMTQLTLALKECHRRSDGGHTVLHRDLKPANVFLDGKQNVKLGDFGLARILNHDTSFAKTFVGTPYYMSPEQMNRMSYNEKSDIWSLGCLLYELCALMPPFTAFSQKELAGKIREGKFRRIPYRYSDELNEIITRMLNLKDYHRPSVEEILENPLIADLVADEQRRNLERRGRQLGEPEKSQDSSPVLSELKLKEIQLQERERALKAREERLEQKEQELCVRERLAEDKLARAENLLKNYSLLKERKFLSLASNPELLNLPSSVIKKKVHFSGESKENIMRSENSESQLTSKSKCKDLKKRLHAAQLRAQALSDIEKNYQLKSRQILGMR
Method in brief: as §1

[5] = target: 140 purified human kinases (Homo sapiens, UniProt Q15418)
Sequence of 140 purified human kinases (Homo sapiens, UniProt Q15418) (Q15418 whole entry): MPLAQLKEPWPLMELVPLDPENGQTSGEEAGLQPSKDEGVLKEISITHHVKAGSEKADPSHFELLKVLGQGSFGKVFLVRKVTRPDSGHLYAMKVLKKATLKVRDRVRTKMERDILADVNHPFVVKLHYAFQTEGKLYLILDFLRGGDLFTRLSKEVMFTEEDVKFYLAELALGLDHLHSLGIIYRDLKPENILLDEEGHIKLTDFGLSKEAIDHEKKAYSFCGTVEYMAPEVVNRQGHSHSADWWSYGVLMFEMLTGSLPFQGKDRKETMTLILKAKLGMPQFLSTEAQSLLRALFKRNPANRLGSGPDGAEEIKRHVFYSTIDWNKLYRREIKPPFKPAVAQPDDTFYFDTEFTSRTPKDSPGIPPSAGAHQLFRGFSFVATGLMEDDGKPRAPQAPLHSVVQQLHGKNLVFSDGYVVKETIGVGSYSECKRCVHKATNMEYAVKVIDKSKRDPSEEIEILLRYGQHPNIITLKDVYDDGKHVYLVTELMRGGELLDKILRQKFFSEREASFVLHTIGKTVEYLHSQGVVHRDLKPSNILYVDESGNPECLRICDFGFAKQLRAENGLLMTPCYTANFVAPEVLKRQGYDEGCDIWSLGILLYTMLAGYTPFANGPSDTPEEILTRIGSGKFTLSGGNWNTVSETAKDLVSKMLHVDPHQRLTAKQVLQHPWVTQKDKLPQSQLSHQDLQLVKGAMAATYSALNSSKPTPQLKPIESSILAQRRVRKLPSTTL
Method in brief: as §1

[6] = target: T3, 140 purified human kinases (Homo sapiens, UniProt Q9UKI8)
T3 sequence (Q9UKI8 1-766): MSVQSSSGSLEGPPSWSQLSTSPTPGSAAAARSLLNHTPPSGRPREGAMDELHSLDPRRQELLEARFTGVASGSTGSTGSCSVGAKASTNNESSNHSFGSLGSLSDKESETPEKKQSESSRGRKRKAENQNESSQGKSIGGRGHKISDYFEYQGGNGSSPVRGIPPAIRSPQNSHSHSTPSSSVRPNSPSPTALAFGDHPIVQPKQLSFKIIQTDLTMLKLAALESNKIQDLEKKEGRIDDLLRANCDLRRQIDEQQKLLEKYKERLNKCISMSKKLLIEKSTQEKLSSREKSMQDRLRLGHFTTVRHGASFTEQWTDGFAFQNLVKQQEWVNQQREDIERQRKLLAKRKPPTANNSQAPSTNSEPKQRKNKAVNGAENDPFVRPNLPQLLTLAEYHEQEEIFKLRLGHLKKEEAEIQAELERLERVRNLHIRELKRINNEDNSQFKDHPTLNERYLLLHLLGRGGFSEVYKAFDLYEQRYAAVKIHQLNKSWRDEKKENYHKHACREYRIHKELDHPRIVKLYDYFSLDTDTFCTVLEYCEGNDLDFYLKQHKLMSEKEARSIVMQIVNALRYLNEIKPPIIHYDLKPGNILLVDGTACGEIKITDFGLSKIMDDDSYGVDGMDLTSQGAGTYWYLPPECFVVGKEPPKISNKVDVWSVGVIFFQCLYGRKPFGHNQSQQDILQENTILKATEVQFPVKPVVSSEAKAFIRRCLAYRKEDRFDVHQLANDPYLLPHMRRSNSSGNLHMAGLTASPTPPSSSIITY
Method in brief: as §1

[7] = target: 140 purified human kinases (Homo sapiens, UniProt Q13233)
Sequence of 140 purified human kinases (Homo sapiens, UniProt Q13233) (Q13233 whole entry): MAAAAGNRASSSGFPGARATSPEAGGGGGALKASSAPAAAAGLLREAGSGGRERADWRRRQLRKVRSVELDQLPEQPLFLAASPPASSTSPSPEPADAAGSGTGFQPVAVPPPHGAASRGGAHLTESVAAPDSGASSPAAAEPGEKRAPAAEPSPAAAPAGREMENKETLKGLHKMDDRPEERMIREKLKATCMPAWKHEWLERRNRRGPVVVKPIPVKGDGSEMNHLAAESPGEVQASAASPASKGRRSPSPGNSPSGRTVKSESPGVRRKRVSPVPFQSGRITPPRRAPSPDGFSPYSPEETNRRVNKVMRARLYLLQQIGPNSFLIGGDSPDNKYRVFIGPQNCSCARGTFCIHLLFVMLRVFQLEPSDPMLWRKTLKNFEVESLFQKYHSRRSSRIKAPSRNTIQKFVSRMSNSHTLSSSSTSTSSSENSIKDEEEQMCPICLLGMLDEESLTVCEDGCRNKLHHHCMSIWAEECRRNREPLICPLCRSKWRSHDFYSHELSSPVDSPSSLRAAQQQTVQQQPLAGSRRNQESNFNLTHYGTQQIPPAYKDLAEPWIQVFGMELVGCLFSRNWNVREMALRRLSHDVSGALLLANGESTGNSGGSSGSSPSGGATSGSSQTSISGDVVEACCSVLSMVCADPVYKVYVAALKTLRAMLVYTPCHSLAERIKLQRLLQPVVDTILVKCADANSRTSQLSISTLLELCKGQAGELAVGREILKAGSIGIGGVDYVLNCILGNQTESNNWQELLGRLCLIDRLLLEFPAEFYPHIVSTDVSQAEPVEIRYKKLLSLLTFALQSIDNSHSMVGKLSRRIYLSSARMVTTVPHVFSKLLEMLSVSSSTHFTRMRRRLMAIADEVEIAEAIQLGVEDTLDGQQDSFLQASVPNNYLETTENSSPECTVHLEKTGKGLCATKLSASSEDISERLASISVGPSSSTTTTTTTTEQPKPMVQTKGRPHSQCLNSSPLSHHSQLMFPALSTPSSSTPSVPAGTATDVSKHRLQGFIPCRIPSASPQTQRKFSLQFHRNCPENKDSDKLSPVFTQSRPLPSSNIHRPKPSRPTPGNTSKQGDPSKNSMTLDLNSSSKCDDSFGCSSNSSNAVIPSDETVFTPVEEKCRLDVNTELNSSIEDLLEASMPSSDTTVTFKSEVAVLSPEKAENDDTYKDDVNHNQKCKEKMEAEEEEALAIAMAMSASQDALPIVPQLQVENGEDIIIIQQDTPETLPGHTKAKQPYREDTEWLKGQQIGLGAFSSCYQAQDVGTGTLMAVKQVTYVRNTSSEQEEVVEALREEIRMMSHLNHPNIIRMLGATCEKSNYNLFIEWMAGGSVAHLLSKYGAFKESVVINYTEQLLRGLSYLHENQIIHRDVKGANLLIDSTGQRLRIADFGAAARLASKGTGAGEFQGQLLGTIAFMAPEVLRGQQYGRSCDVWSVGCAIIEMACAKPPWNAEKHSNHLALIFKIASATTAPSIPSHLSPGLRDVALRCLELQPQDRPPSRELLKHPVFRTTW
Method in brief: as §1

Sequence of 140 purified human kinases (Homo sapiens, UniProt Q9P286) (Q9P286 whole entry): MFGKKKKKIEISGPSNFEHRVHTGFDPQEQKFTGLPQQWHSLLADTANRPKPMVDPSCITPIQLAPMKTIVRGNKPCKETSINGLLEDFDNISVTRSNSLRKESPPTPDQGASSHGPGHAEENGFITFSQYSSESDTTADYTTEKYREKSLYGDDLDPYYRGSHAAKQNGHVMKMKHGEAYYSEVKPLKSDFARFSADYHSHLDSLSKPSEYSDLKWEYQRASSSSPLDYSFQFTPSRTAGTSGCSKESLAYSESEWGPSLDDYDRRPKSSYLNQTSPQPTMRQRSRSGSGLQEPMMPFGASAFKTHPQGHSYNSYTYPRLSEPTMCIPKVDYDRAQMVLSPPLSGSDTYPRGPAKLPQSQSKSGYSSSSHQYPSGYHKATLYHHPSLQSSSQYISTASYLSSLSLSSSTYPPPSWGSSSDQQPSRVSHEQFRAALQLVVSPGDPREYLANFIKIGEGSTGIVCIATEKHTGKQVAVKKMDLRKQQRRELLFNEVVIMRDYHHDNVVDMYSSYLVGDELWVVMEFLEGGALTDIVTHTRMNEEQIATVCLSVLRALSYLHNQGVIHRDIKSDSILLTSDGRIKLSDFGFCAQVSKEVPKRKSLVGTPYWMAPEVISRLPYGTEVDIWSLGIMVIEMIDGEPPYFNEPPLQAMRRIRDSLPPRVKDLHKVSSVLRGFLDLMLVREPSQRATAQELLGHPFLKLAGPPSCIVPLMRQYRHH

In the case of `[Cu+2].[Cu+2].[Cu+2].c1ccc(-c2csc(NCCN(CCNc3nc(-c4ccccn4)cs3)CCNc3nc(-c4ccccn4)cs3)n2)nc1.c1ccc(-c2csc(NCCN(CCNc3nc(-c4ccccn4)cs3)CCNc3nc(-c4ccccn4)cs3)n2)nc1` [[L2Cu3]6+], the “% Activation, Mean value” ([1]; PAK5) was 10%, the “% Inhibition Run 1” value ([1]; PAK5) was -1.8% and the “% Inhibition Run 2” value ([1]; PAK5) was -17.5%. For the same compound, the “% Inhibition, Mean” value ([1]; PAK5) was -10%, the mean % activity ([1]; PAK5) was 110% and the “% activity” value ([1]; PAK5, Run 1) was 101.8%. For the same compound, the “% activity” value ([1]; PAK5, Run 2) was 117.5%, the “% Activity Run 1” value ([1]; PAK5) was 101.80% and the “% Activity Run 2” value ([1]; PAK5) was 117.50%. For the same compound, the “% Inhibition Run 1” value [2] was 92.5%, the “% Inhibition Run 2” value [2] was 95.1% and the “% Inhibition, Mean” value [2] was 94%. The mean % activity [2] was 6%, the “% activity” value ([2]; Run 1) was 7.5% and the “% activity” value ([2]; Run 2) was 4.9%. The “% Activity inhibition Mean” value [2] was 93.8%, the “% Activity inhibition Run 1” value [2] was 92.5% and the “% Activity inhibition Run 2” value [2] was 95.1%. For the same compound, the “% Activity remaining Run 1” value [2] was 7.50%, the “% Activity remaining Run 2” value [2] was 4.90% and the “% Inhibition Run 1” value [3] was 38.7%. For the same compound, the “% Inhibition Run 2” value [3] was 33.3%, the “% Inhibition, Mean” value [3] was 36% and the mean % activity [3] was 64%. The “% activity” value ([3]; Run 1) was 61.3%, the “% activity” value ([3]; Run 2) was 66.7% and the “% Inhibition Run 1” value [4] was 94.1%. The “% Inhibition Run 2” value [4] was 94%, the “% Inhibition, Mean” value [4] was 94% and the mean % activity [4] was 6%. The “% activity” value ([4]; Run 1) was 5.9%, the “% activity” value ([4]; Run 2) was 6% and the “% Activity inhibition Mean” value ([4]; 10 µM) was 94.1%. For the same compound, the “% Activity inhibition Run 1” value ([4]; 10 µM) was 94.1%, the “% Activity inhibition Run 2” value ([4]; 10 µM) was 94% and the “% Activity remaining Run 1” value ([4]; 10 µM) was 5.90%. For the same compound, the “% Activity remaining Run 2” value ([4]; 10 µM) was 6.00%, the “% Inhibition Run 1” value ([5]; RSK1) was 96.7% and the “% Inhibition Run 2” value ([5]; RSK1) was 97%. For the same compound, the “% Inhibition, Mean” value ([5]; RSK1) was 97%, the mean % activity ([5]; RSK1) was 3% and the “% activity” value ([5]; RSK1, Run 1) was 3.3%. The “% activity” value ([5]; RSK1, Run 2) was 3%, the “% Activity inhibition Mean” value ([5]; RSK1, 10 µM) was 96.9% and the “% Activity inhibition Run 1” value ([5]; RSK1, 10 µM) was 96.7%. For the same compound, the “% Activity inhibition Run 2” value ([5]; RSK1, 10 µM) was 97%, the “% Activity remaining Run 1” value ([5]; RSK1, 10 µM) was 3.30% and the “% Activity remaining Run 2” value ([5]; RSK1, 10 µM) was 3.00%. The “% Activation, Mean value” ([6]; TLK1) was 16%, the “% Inhibition Run 1” value ([6]; TLK1) was -7.2% and the “% Inhibition Run 2” value ([6]; TLK1) was -24.2%. For the same compound, the “% Inhibition, Mean” value ([6]; TLK1) was -16%, the mean % activity ([6]; TLK1) was 116% and the “% activity” value ([6]; TLK1, Run 1) was 107.2%. For the same compound, the “% activity” value ([6]; TLK1, Run 2) was 124.2%, the “% Activity Run 1” value ([6]; TLK1, 10 µM) was 107.20% and the “% Activity Run 2” value ([6]; TLK1, 10 µM) was 124.20%. The “% Inhibition Run 1” value ([7]; MEKK1) was 48.4%, the “% Inhibition Run 2” value ([7]; MEKK1) was 57.6% and the “% Inhibition, Mean” value ([7]; MEKK1) was 53%. The mean % activity ([7]; MEKK1) was 47%, the “% activity” value ([7]; MEKK1, Run 1) was 51.6% and the “% activity” value ([7]; MEKK1, Run 2) was 42.4%.

For `CC(=O)[O-].CC(=O)[O-].CC(=O)[O-].CC(=O)[O-].CC(=O)[O-].CC(=O)[O-].[Zn+2].[Zn+2].[Zn+2].c1ccc(-c2csc(NCCN(CCNc3nc(-c4ccccn4)cs3)CCNc3nc(-c4ccccn4)cs3)n2)nc1.c1ccc(-c2csc(NCCN(CCNc3nc(-c4ccccn4)cs3)CCNc3nc(-c4ccccn4)cs3)n2)nc1` [[L2Zn3]6+], the “% Activation, Mean value” ([1]; PAK5) was 20%, the “% Inhibition, Mean” value ([1]; PAK5) was -20% and the mean % activity ([1]; PAK5) was 120%. For the same compound, the “% Activity Run 1” value ([1]; PAK5) was 110.0%, the “% Activity Run 2” value ([1]; PAK5) was 130.0% and the “% activity” value ([1]; PAK5, duplicate runs) was 110% and 130%. For the same compound, the “% Inhibition, Mean” value [2] was 88%, the “% Inhibition, Run 1 / Run 2” value [2] was 89% and 87% and the mean % activity [2] was 12%. For the same compound, the “% Activity inhibition Mean” value [2] was 88.0%, the “% Activity inhibition Run 1” value [2] was 89% and the “% Activity inhibition Run 2” value [2] was 87%. The “% Activity remaining Run 1” value [2] was 11%, the “% Activity remaining Run 2” value [2] was 13% and the “% activity” value ([2]; duplicate runs) was 11% and 13%. The “% Inhibition, Mean” value [3] was 27%, the “% Inhibition, Run 1 / Run 2” value [3] was 35% and 19% and the mean % activity [3] was 73%. The “% activity” value ([3]; duplicate runs) was 65% and 81%, the “% Inhibition, Mean” value [4] was 30% and the mean % activity [4] was 70%. The “% activity” value ([4]; duplicate runs) was 58% and 82%, the “% Inhibition, Mean” value ([5]; RSK1) was 73% and the “% Inhibition, Run 1 / Run 2” value ([5]; RSK1) was 76% and 70%. For the same compound, the mean % activity ([5]; RSK1) was 27%, the “% activity” value ([5]; RSK1, duplicate runs) was 24% and 30% and the “% Inhibition, Mean” value ([6]; TLK1) was -0.3%. The mean % activity ([6]; TLK1) was 100%, the “% activity” value ([6]; TLK1, duplicate runs) was 92% and 109% and the “% Inhibition, Mean” value ([7]; MEKK1) was 17%. The mean % activity ([7]; MEKK1) was 83% and the “% activity” value ([7]; MEKK1, duplicate runs) was 75% and 92%.

From publication PMC8222254, “Self-assembly of an anion receptor with metal-dependent kinase inhibition and potent in vitro anti-cancer properties” (Nature Communications, 2021)
